“And” between values parts separate entries of the source, which are not always exact repeats. Equal values may be shown once. “Also recorded” adds a separate entry of the source.
Assays:
Treg differentiation = test: Flow cytometry, Treg differentiation of naive CD4+ T cells (Foxp3 production); assay type: cell-based, C57BL/6 mice; details: for Foxp3 producing Treg differentiation: Treg-polarizing conditions, 3 days
Description: (§1) Naive CD4^+ T cells were sorted by magnetic bead (Miltenyi Biotec) from spleen of C57BL/6 mice (8-14 weeks). CD4^+ T cells (5×10^5 cells/well) were activated with 2 μg/ml of plate-bound anti-mouse CD3 (Biolegend, San Diego, USA), and 5 μg/ml of anti-mouse CD28 (Biolegend) into 24-well-plates. For Th17 differentiation, cells were cultured for 3 days in the presence of 1 ng/ml recombinant human transforming growth factor-β (TGF-β1, Biolegend), 50 ng/ml recombinant mouse interleukin-6 (IL-6, Biolegend), and 5 ng/ml recombinant mouse IL-23 (Biolegend), and 10 μg/ml anti-mouse interleukin-4 (IL-4, Biolegend) with or without the limonoid. For the Th1 differentiation, the cells were cultured for 3 days in the presence of 2 ng/ml recombinant mouse interleukin-2 (IL-2, Biolegend), and 20 μg/ml anti-mouse IL-4 (Biolegend) with or without indicated compounds. For the Th2 differentiation, the cells were cultured for 3 days in the presence of 2 ng/ml recombinant mouse IL-2 (Biolegend), and 20 ng/ml recombinant mouse IL-4 (Biolegend), and 20 μg/ml anti-mouse IFN-γ (Biolegend) with or without compound. For the Treg differentiation, the cells were cultured for 3 days in the presence of 1 ng/ml recombinant human TGF-β1 (Biolegend), and 5 ng/ml recombinant mouse IL-2 (Biolegend) with or without indicated compounds.
(§2) For polarization of Th17, the cells were re-stimulated in complete RPMI 1640 containing 50 ng/ml PMA, 1 μg/ml ionomycin, and 1× Brefeldin A (Biolegend) for 4 h. For polarization of Th1 and Th2, the cells were re-stimulated in complete RPMI 1640 containing 50 ng/ml PMA and 1 μg/ml ionomycin. After 1 h of incubation, 1× Monensin (Biolegend) was added and incubated for 4 h. The cells were collected and washed with Staining Buffer (BD Biosciences, New Jersey, USA), and then stained with PerCP/Cy5.5 anti-mouse CD4 (Biolegend). And then the cells were fixed for 15 min with fixation buffer (BD Biosciences), permeabilized with BD Wash buffer (1×; BD Biosciences), and stained with PE anti-mouse IL-17A (Biolegend), FITC anti-mouse IFN-γ (Biolegend), and APC anti-mouse IL-4 (Biolegend) or APC anti-mouse Foxp3 (eBioscience). The cells were analyzed by BD FACS Aria III, and the acquired data were analyzed using FlowJo software.

Th2 differentiation = test: Flow cytometry, Th2 differentiation of naive CD4+ T cells (IL-4 production); assay type: cell-based, C57BL/6 mice; details: for ratio of the IL-4 producing Th2 differentiation: Th2-polarizing conditions, 3 days
Description: as §1, §2

Th1 differentiation = test: Flow cytometry, Th1 differentiation of naive CD4+ T cells (IFN-γ production); assay type: cell-based, C57BL/6 mice; details: for ratio of the IFN-γ producing Th1 differentiation: Th1-polarizing conditions, 3 days
Description: as §1, §2

[1] = test system: human peripheral blood mononuclear cells (PBMCs); test: Cell viability (MTT) assay of human PBMCs; assay type: cell-based; details: concentration of up to 50 μM, 72 h
Description: Human peripheral blood mononuclear cells have been isolated from buffy coat. In brief, the buffy coat provided by Macao Blood Transfusion Centre was mixed with normal saline, and then added to 50 mL centrifuge tube containing Ficoll-Pague plus (Amersham Biosciences). The mixture was separated into several layers after centrifuged at 350 g for 35 min. The layer of mononuclear cells has been collected, and then washed twice by normal saline. These cells were be used for the experiments.
Human PBMCs (1×10^5/well) were cultured in 96-well plates in triplicate in RPMI 1640 medium (Gibco, Paisley, UK) with 10% fetal bovine serum (FBS; Gibco), penicillin (100 units/mL) and streptomycin (100 μg/mL), and different concentration of Amotsangin A, B, C and D were added for 72 h. MTT (5 mg/mL) was added to the cells followed by 4 h incubation, followed by addition of solvent (10% sodium dodecyl sulfate (SDS), 50% N, N-dimethyl formamide, pH 7.2) to dissolve the purple precipitate. The absorbance was recorded on a Microplate UV/VIS Spectrophotometer (TECAN, Switzerland) at 570 nm wavelength on the following day. The percentage of cell viability was calculated using the following formula: Cell viability (%)=(ODtreated−ODblank)/(ODcontrol−ODblank)×100.

ROR-γt protein = test: Western blotting of ROR-γt expression in ROR-γt-plasmid transfected HEK293 cells; assay type: cell-based, human; details: 24 h
Description: The transfection assay is preformed according to the manufacturer's instruction of lipofectamine LTX (invitrogen, USA). In brief, HEK293 cells obtained from the American Type Culture Collection (ATCC, Manassas, Va., USA) were seeded in 1.5 ml of DMEM growth media plus 10% FBS at 5×10^5 cells per well. Five hundred micro liter Opti-MEM Reduced Serum Media containing 1.25 μg of DNA was added to the cells to be transfected, and then 1.25 μl of PLUS was added into the above diluted Opti-MEM:DNA solution, gently mixed and incubated for another 5 min at room temperature. Subsequently, lipofectamine LTX™ Reagent was added into the above solution, mixed gently and then incubated 30 min at room temperature to form DNA-lipofectamine LTX Reagent complexes. Finally, 500 μl of the DNA-lipofectamine LTX Reagent complexes was directly added to each well containing cells and mixed gently. The cells were incubated at 37° C. in a CO2 incubator for another 24 h.
After incubated for 24 h, the transfected HEK293 cells were treated with different concentrations of Amotsangin A, B, C or D for another 24 h. Then the cells were lysed with RIPA buffer containing 1× protease inhibitor mix (Roche, USA) to harvest total cellular proteins, and the protein concentration was calculated by the bicinchoninic acid (BCA) kit (Pierce, Rockford, Ill.). The total cellular proteins were then subjected to electrophoresis in 10% SDS/PAGE and transferred to nitrocellulose membranes. After blocking with 5% non-fat milk in a Tris-buffered saline-0.1% Tween-20 buffer (TBST), the membrane was subsequently incubated with specific primary antibodies (RORγt antibody (eBioscience, San Diego, USA) or β-actin antibody (Santa Cruz, USA)) and HRP-conjugated secondary antibodies. A chemiluminescence (ECL) detection system was used to detect the antibody-bound proteins on the membrane.

Th17 differentiation = test: Flow cytometry, Th17 differentiation of naive CD4+ T cells (IL-17 production); assay type: cell-based, C57BL/6 mice; details: Th17-polarizing conditions; for ratio of the IL-17 production: 3 days; for Th17 cell differentiation (effect in words): up to 25 μM (Amotsangin C up to 10 μM)
Description: as §1, §2

[2] = test system: ROR-γt luciferase reporter activity; test: Lightswitch luciferase reporter assay (ROR Gamma T LUCPorter stable reporter HEK293 cells); assay type: cell-based; details: 16 h
Description: ROR Gamma T LUCPorter™ Stable Reporter cells and LUCPorter™ Vector Control HEK293 cells (Imgenex) were plated in 96-well plates at 5×10^4 cells/well in triplicate in RPMI 1640 medium with 10% fetal bovine serum, penicillin (100 units/mL), streptomycin (100 μg/mL) and puromycin (3 μg/mL) over night. […] Then the complete mixture of luciferase assay reagent (Biocompare, Texas, USA) has been added to the wells and the mixture has been incubated for 30 min at room temperature in the dark. The mixture has been transferred into a 96 well white plates before reading. Finally, each well was read for 2 seconds in a plate luminometer on a Microplate UV/VIS Spectrophotometer (TECAN, Switzerland). Data are obtained from three independent experiments.

SMILES	Treg cell differentiation (effect in words) (Treg differentiation; 25 μM)	Th2 cell differentiation (effect in words) (Th2 differentiation; 25 μM)	ratio of the IL-4 producing Th2 differentiation (Th2 differentiation; 25 μM)	Th1 cell differentiation (effect in words) (Th1 differentiation; 25 μM)	ratio of the IFN-γ producing Th1 differentiation (Th1 differentiation; 25 μM)	cytotoxicity on human PBMCs [1]	expression of ROR-γt protein (ROR-γt protein; 5 to 50 μM)	ratio of the IL-17 production (Th17 differentiation; 25 μM)	Th17 cell differentiation (effect in words) (Th17 differentiation)	ROR-γt luciferase reporter activity ([2]; 5 to 50 μM)	Treg cell differentiation (effect in words) (Treg differentiation; 10 μM)	Foxp3 producing Treg differentiation (Treg differentiation; 10 μM)	Th2 cell differentiation (effect in words) (Th2 differentiation; 10 μM)	ratio of the IL-4 producing Th2 differentiation (Th2 differentiation; 10 μM)	Th1 cell differentiation (effect in words) (Th1 differentiation; 10 μM)	ratio of the IFN-γ producing Th1 differentiation (Th1 differentiation; 10 μM)	expression of ROR-γt protein (ROR-γt protein; 1 to 25 μM)	ratio of the IL-17 production (Th17 differentiation; 10 μM)	ROR-γt luciferase reporter activity ([2]; 1 to 25 μM)	Foxp3 producing Treg differentiation (Treg differentiation; 25 μM)
C=C1[C@@H]([C@@]2(C)C=CC(=O)OC(C)(C)[C@@H]2CC(=O)OC)[C@@H](OC(C)=O)[C@H](OC(=O)C(C)CC)[C@@]2(C)[C@H](c3ccoc3)C[C@H]3O[C@]132 (stereo partly drawn) [Amotsangin A]	no inhibitory effect	no inhibitory effect	14.8%	no inhibitory effect	could not be changed	no significant cytotoxicity	dose-dependently reduced; also recorded: reduces	4.28%	can suppress	dose-dependently reduced; also recorded: inhibits	–	–	–	–	–	–	–	–	–	–
C=C1[C@@H]([C@@]2(C)C=CC(=O)OC(C)(C)[C@@H]2CC(=O)OC)[C@@H](OC(C)=O)[C@H](OC(=O)C(C)C)[C@@]2(C)[C@H](c3ccoc3)C[C@H]3O[C@]132 [Amotsangin B]	no effect; also recorded: not effect	can inhibit	4.11%	can inhibit	2.02%	no significant cytotoxicity	reduces	1.08%	can suppress	dose-dependently reduced; also recorded: inhibits	–	–	–	–	–	–	–	–	–	–
C=C1[C@@H]([C@@]2(C)C=CC(=O)OC(C)(C)[C@@H]2CC(=O)OC)[C@@H](OC(C)=O)[C@H](OC(=O)C(O)C(C)CC)[C@@]2(C)[C@H](c3ccoc3)C[C@H]3O[C@]132 (stereo partly drawn) [Amotsangin C]	–	–	–	–	–	no significant cytotoxicity	–	–	can suppress	–	inhibits	8.49%	inhibits	8.7%	inhibits; also recorded: can inhibit	10.2%	reduced	1.91%	dose-dependently reduced; also recorded: reduces	–
C=C1[C@@H]([C@@]2(C)C=CC(=O)OC(C)(C)[C@@H]2CC(=O)OC)[C@@H](OC(C)=O)[C@H](OC(=O)CC)[C@@]2(C)[C@H](c3ccoc3)C[C@H]3O[C@]132 [Amotsangin D]	no inhibitory effect	could inhibit	11.9%	no inhibitory effect; also recorded: slight inhibitory effect	14.6%	no significant cytotoxicity	reduces	1.59%	can suppress	dose-dependently reduced; also recorded: reduces	–	–	–	–	–	–	–	–	–	13.7%
C[C@H]1O[C@@H](O[C@H]2[C@@H](O)C[C@H](O[C@H]3[C@@H](O)C[C@H](O[C@H]4CC[C@@]5(C)[C@H](CC[C@@H]6[C@@H]5C[C@@H](O)[C@]5(C)[C@@H](C7=CC(=O)OC7)CC[C@]65O)C4)O[C@@H]3C)O[C@@H]2C)C[C@H](O)[C@@H]1O [digoxin, reference compound]	–	–	–	–	–	–	–	–	–	–	–	–	–	15.0% and 10.2%	–	10.8% and 15.3% and 17.0%	–	5.43%	–	–

From patent publication US9901566B1, “Limonoids for treating autoimmune diseases” (Macau University of Science and Technology, priority 2017, dated 2018)
